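Dose response: 5 concentrations. Exposure: 48 h. Format: 96-well plates. Endpoint: linear interpolation; highest concentration if not reached. GI50 is the concentration that inhibits growth by half. The concentration for full growth arrest is given as TGI.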
How the values were obtained:
Assay in all cases: NCI tumour cell line growth inhibition, 48 h
[1] = tested on: DMS 273 small cell lung
[2] = tested on: SW-620 colon
[3] = tested on: SK-MEL-28 melanoma
[4] = tested on: DLD-1 colon
[5] = tested on: SNB-78 CNS
[6] = tested on: M19-MEL melanoma
[7] = tested on: LXFL 529 NSCLC
[8] = tested on: XF 498 CNS
[9] = tested on: KM20L2 colon
[10] = tested on: CAKI-1 renal
[11] = tested on: DMS 114 small cell lung
[12] = tested on: HOP-18 NSCLC
[13] = tested on: SN12K1 renal
[14] = tested on: P388/ADR leukemia
[15] = tested on: P388 leukemia
[16] = tested on: RXF-631 renal

Row | Compound | TGI [1] [µM] | TGI [2] [µM] | TGI [3] [µM] | TGI [4] [µM] | TGI [5] [µM] | TGI [6] [µM] | TGI [7] [µM] | TGI [8] [µM] | TGI [9] [µM] | TGI [10] [µM] | TGI [11] [µM] | GI50 [12] [µM] | TGI [12] [µM] | TGI [13] [µM] | TGI [14] [µM] | TGI [15] [µM] | TGI [16] [µM]
1 | Cc1nc2c(n1CCC(C)C)C(=O)c1ccccc1C2=O | 29.4 | > 100 | 38.8 | > 100 | > 100 | 28.5 | > 100 | 36.4 | > 100 | – | – | – | – | – | – | – | –
2 | CC(=O)[O-].[Ni].c1ccc(/C(=N\Nc2ccccn2)c2ccccn2)cc1 | 25.5 | 32.2 | 18.8 | 32.7 | > 100 | 39.3 | 16 | – | 22.1 | 39.3 | 3.36 | 2.81 | > 100 | – | – | – | –
3 | O=c1[nH]cc(N(CCCl)CCCl)c(=O)[nH]1 | 74.4 | 249 | 204 | 366 | 369 | 175 | 187 | 89.7 | 196 | 56.7 | 103 | – | 199 | 172 | 70 | 66.7 | –
4 | NC(CCCCN=Cc1nc(-c2ccccc2)oc1O)C(=O)O (stereo not given) | > 100 | > 100 | > 100 | > 100 | > 100 | > 100 | > 100 | > 100 | > 100 | – | > 100 | – | – | – | – | – | –
5 | COc1cc2c(oc(=O)c3cc4ccoc4c(OC)c32)c2cccc(O)c12 | > 100 | > 100 | > 100 | > 100 | > 100 | > 100 | > 100 | > 100 | > 100 | > 100 | > 100 | – | > 100 | – | – | – | –
6 | CC1(C)CCCCCC(C)(CCCCCCCCCCCO)C1=O (stereo not given) | – | 32.9 | 32 | – | – | – | – | – | – | 28.6 | – | – | – | – | – | – | –
7 | COc1ccc(-c2oc3cc(OC)c(OC)c(OC)c3c(=O)c2OC)cc1OC | – | > 100 | > 100 | – | – | – | – | – | – | > 100 | – | – | – | – | – | – | –
8 | COc1ccc(/C=C(\C(=O)OCC(C)C)c2ccc(OC)c(OC)c2)cc1OC | – | > 100 | > 100 | – | – | – | – | – | – | > 100 | – | – | – | – | – | – | –
9 | O=c1oc2cc(O)ccc2cc1-c1nc2ccccc2s1 | – | 44 | > 100 | – | – | – | – | – | – | 74.6 | – | – | – | – | – | – | –
10 | O=NNc1cnccn1 | > 1250 | > 1250 | > 1250 | > 1250 | > 1250 | > 1250 | – | – | > 1250 | > 1250 | > 1250 | – | > 1250 | > 1250 | > 1250 | > 1250 | –
11 | CC(=O)O[C@H]1CC[C@H]2[C@@H]3CCC4=C(C(=O)C=CC4(C)OC(C)=O)[C@H]3CC[C@]12C (stereo not given in full) | – | > 100 | > 100 | – | – | – | – | – | – | > 100 | – | – | – | – | – | – | –
12 | CCOC(=O)NC(NNc1ccc([N+](=O)[O-])cc1[N+](=O)[O-])(C(F)(F)F)C(F)(F)F | – | > 100 | > 100 | – | – | – | – | – | – | > 100 | – | – | – | – | – | – | –
13 | COP(=O)(OC)C(O)/C=C(\Cl)c1ccc(Cl)cc1 (stereo not given) | – | > 100 | > 100 | – | – | – | – | – | – | > 100 | – | – | – | – | – | – | –
14 | O=C(O)C(Cc1cnc[nH]1)N=Cc1nc(-c2ccccc2)oc1O (stereo not given) | > 100 | > 100 | > 100 | > 100 | > 100 | > 100 | > 100 | > 100 | > 100 | – | > 100 | – | – | – | – | – | –
15 | COc1ccc2c[n+](C)c3c4cc(OC)c(OC)cc4ccc3c2c1 | 12.5 | 16.4 | 40.1 | 42.2 | 33.5 | 25.6 | 12 | 22.1 | 29.7 | > 100 | 4.16 | – | > 96.1 | – | – | – | 46.9
